Among the data in ChEMBL document CHEMBL1201862, “PubChem BioAssay data set” (2004) are AC50, IC50 and EC50 values, retold here.

Activity calls are given as the source filed them.

The AC50 is the midpoint of the concentration-response curve, whichever way the signal moves.

In assay [1] the target is Heat shock protein HSP 90-alpha (Homo sapiens, UniProt P07900). It counts as functional, organism-based.
The target of assay [2] is T1, Polyadenylate-binding protein 1 (Homo sapiens, UniProt P11940). Description: PABP1 MLLE–PAM2 interaction inhibitors, dose response, miRNA deadenylation inhibitor project, biochemical, fluorescence polarization, Cy5-PAM2 peptide, secondary (AID 602260). It counts as functional. Particulars: read-out: IC50_Mean.
T1 sequence (P11940 whole entry): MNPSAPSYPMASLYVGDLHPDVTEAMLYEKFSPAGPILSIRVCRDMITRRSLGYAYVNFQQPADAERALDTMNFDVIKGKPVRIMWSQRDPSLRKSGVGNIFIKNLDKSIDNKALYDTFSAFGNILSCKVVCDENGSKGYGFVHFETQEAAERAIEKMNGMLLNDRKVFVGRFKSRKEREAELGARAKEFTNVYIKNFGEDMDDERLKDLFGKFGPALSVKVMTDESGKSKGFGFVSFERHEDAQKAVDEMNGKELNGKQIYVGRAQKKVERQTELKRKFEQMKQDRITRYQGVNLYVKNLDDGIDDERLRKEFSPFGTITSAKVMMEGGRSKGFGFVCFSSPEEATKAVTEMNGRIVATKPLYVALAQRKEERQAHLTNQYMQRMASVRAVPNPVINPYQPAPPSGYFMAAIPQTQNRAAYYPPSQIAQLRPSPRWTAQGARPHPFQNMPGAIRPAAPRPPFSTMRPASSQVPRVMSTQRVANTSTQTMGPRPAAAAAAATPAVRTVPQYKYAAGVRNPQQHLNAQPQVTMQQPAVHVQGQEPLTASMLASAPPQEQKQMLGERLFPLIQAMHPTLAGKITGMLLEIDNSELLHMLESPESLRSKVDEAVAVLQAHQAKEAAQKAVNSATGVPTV
Assay [3] has as its target T1, Polyadenylate-binding protein 1. Description: PABP1 MLLE–PAM2 binding inhibitor potency, dose response, biochemical, fluorescence polarization, FITC-PAM2 peptide (AID 602259). Conditions: read-out: IC50_Mean. It counts as functional. In general terms: Polarisation of emitted light reports the rotation of a fluorescent probe.
Assay [4] addresses T2, RNA-binding protein pos-1 (Caenorhabditis elegans, UniProt G5EF15).
T2 sequence (G5EF15 whole entry): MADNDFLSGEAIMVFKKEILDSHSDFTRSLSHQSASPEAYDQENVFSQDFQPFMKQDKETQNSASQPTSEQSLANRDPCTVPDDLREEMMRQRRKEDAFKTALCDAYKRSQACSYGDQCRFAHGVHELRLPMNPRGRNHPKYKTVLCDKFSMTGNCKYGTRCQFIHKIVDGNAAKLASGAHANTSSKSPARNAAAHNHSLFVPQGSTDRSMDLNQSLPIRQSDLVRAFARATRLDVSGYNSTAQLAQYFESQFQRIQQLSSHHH
In words: inhibitors of POS-1/mex-3 RNA binding, dose response, biochemical, fluorescence polarization (AID 1964).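 Also: purified POS-1 fused to maltose binding protein made in E. coli; potency of compounds blocking POS-1 binding to fluorescent RNA.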

Assay [5] has as its target T3, Zinc finger protein mex-5 (Caenorhabditis elegans, UniProt Q9XUB2).
T3 sequence (Q9XUB2 whole entry): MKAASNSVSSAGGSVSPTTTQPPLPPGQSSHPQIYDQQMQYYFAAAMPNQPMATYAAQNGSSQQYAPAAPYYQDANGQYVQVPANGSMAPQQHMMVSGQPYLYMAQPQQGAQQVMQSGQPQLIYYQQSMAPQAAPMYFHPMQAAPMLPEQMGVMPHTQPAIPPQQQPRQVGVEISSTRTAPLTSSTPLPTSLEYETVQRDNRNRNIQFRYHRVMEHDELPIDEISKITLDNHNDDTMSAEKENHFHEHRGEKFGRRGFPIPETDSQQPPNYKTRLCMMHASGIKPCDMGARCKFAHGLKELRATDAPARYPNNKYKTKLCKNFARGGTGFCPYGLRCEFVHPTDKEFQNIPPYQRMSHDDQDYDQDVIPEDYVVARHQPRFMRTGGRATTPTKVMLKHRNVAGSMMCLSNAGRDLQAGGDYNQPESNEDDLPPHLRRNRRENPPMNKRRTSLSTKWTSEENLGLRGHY
In words: MEX-5/TCR-2 RNA interaction inhibitors, dose response, biochemical, C. elegans, fluorescence polarization (AID 1960).

A further assay addresses Nonstructural protein 1 (Influenza A virus, UniProt Q194T2). It counts as functional, Influenza A virus (A/California/07/2009(H1N1)).
The next assay concerns the target Cytochrome P450 2C19 (Homo sapiens, UniProt P33261). Description: Cytochrome panel assay with activity outcomes. Panel member name: p450-cyp2c19 Compounds with AC50 equal or less than 10 uM are considered active. It counts as functional. Conditions: read-out: AC50.
Another assay has as its target Cytochrome P450 2C9 (Homo sapiens, UniProt P11712).
A further assay relates to H9c2. Description: cells. It counts as functional, cell-based. Particulars: Rattus norvegicus, H9c2, Myocardium.
Another assay concerns the target T4, Cytochrome P450 1A2 (Homo sapiens, UniProt P05177).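 Also: PubChem cytochrome P450 panel assay, CYP1A2 panel member.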
T4 sequence (P05177 whole entry): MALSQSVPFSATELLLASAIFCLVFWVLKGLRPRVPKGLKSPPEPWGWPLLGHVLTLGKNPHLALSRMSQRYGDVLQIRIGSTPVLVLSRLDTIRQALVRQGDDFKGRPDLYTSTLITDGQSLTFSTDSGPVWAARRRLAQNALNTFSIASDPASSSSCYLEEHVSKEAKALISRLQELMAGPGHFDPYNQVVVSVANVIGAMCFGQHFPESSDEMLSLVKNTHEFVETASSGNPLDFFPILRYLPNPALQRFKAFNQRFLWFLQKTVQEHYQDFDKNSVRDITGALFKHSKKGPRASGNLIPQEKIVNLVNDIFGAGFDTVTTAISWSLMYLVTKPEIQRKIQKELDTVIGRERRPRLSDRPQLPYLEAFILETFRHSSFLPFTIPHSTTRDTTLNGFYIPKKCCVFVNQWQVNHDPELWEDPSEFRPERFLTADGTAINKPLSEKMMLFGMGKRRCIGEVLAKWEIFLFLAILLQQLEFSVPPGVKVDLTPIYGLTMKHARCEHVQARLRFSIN

In assay [6] the target is T5, Corticotropin-releasing factor receptor 2/Corticotropin-releasing factor-binding protein (Homo sapiens, UniProt P24387+Q13324).
T5 sequence (Q13324 whole entry): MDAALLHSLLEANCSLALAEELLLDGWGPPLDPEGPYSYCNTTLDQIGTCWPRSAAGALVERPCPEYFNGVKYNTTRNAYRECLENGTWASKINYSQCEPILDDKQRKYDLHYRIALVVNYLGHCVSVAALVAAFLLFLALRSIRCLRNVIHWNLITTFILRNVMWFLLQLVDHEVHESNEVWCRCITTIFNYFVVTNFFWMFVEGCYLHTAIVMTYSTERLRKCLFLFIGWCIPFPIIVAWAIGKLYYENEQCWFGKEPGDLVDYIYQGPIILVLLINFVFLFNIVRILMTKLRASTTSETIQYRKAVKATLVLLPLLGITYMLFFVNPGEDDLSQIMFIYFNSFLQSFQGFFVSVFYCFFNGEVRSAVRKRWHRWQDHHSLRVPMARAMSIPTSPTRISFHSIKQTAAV
T5 sequence (P24387 whole entry): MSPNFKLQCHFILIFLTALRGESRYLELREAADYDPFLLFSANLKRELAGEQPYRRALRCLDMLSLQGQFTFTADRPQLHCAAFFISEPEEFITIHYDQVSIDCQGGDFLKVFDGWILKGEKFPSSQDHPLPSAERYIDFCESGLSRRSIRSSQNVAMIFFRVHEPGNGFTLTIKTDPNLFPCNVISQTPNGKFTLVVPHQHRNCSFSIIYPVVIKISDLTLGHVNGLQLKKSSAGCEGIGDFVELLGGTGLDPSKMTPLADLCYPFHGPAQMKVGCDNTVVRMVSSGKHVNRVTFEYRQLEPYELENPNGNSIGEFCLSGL
In words: activators of CRF receptor 2 with binding protein – uHTS hits, confirmation (AID 602473). It counts as functional. Particulars: read-out: EC50_Mean.

Assay [7] addresses T5, Corticotropin-releasing factor receptor 2/Corticotropin-releasing factor-binding protein. Description: Dose Response confirmation of uHTS hits for small molecule antagonists of the CRF-binding protein and CRF-R2 receptor complex. It counts as functional. Particulars: read-out: IC50_Mean.
For assay [8], the target named is T6, Rac GTPase-activating protein 1 (Homo sapiens, UniProt Q9H0H5).
T6 sequence (Q9H0H5 whole entry): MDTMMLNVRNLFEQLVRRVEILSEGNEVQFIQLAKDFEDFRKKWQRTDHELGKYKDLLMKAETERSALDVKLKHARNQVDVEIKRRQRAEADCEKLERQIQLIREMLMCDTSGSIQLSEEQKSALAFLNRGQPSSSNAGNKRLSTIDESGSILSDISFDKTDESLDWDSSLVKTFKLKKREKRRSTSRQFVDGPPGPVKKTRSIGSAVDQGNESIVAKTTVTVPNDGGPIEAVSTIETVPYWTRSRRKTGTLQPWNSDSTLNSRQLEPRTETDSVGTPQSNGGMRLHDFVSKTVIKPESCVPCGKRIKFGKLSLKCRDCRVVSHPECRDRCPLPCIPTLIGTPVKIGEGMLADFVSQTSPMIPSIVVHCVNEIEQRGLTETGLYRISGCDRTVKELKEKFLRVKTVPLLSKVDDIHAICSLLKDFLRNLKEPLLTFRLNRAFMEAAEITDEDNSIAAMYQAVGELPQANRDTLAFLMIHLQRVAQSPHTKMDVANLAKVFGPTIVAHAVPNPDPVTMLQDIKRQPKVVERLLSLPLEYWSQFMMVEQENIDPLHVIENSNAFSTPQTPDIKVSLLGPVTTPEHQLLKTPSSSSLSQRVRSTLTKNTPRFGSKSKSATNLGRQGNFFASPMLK
Description: MgcRacGAP GTPase-activating activity inhibitors, confirmation, biochemical, ADP Hunter fluorescence, primary and confirmatory (AID 624330). It counts as functional.

Chain of Nonstructural protein 1 (Q194T2 whole entry): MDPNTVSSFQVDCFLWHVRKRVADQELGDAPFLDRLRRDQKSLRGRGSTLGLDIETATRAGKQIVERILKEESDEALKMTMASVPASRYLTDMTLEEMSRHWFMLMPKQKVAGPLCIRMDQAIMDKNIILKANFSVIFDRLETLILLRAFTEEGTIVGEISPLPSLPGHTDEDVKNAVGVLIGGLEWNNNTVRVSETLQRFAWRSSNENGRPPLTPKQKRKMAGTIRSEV
Chain of Cytochrome P450 2C9 (P11712 whole entry): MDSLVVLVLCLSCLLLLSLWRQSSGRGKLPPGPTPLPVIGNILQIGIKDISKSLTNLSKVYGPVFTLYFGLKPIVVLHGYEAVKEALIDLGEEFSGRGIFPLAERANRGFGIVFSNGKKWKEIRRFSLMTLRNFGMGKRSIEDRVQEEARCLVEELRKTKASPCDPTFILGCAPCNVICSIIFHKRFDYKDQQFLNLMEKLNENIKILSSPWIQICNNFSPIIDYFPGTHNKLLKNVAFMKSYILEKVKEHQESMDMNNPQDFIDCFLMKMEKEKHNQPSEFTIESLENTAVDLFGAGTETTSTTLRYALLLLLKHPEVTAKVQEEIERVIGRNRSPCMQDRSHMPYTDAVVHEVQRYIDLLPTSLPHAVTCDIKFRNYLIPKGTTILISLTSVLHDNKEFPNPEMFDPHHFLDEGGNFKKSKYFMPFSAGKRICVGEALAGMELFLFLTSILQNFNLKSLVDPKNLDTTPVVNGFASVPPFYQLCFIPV
Chain of Cytochrome P450 2C19 (P33261 whole entry): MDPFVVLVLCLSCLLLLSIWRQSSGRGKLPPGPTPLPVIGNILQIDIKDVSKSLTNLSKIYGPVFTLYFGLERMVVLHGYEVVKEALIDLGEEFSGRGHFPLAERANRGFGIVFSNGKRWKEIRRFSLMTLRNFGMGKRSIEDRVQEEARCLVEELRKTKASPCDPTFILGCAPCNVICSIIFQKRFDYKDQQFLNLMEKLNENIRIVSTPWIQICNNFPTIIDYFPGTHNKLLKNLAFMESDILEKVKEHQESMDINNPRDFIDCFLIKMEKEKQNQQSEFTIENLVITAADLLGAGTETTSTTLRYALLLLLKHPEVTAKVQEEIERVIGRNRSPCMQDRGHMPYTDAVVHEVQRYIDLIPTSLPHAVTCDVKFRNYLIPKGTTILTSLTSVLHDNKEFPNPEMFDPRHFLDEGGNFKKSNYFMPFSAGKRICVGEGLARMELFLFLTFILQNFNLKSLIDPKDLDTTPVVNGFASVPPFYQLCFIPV

With `COc1ccc(N2CCN(c3c(S(=O)(=O)c4ccccc4)cnc4ccc(OC)cc34)CC2)cc1`, in assay [1], the AC50 is 2.76 µM (active).

As for `O=C(NC(=S)Nc1ccc(CN2CCCCC2)cc1)c1ccco1`, the IC50 in assay [2] and in assay [3] was > 66 µM (inactive) in each case. For `COc1cc([C@H](Cc2ccccc2)NC(C)=O)oc(=O)c1`, the EC50 in assay [4] is 38.7 µM (active); in assay [5], 27.9 µM (active). In the case of `c1csc(C2Nc3cccc4cccc(c34)N2)c1`, the IC50 in assay [2] and in [3] was > 66 µM (inactive) each time. `COc1ccc2cc3cc(C(=O)N4CCN(Cc5ccc6c(c5)OCO6)CC4)oc3nc2c1`: at Nonstructural protein 1, the IC50 is > 100 µM (active). `CCOC(=O)c1ccc(-c2ccc(/C=C(\C#N)C(=O)NCC3CCCO3)o2)cc1` (stereo unspecified): the AC50 at Cytochrome P450 2C19 was 2.51 µM (inconclusive); at Cytochrome P450 2C9, 5.62 µM (inconclusive); at Cytochrome P450 1A2, 4.47 µM (inconclusive). Further, the IC50 with H9c2 is > 79 µM (inactive). `COc1cccc(OCCn2cc(C=O)c3ccccc32)c1`: the EC50 in [4] and in assay [5] was > 300 µM (not active) throughout. As for `CCOC(=O)c1sc(-c2ccc(C(F)(F)F)cc2)nc1O`, the EC50 in assay [6] was 11.9 µM (active). The AC50 in [1] is 3.14 µM (active). Moreover, in assay [7], the IC50 was > 47.1 µM (inactive). For the compound `O=C(CCCSc1nc(O)c2c3c(sc2n1)CCC3)NCCCO`, in the assay with H9c2, the IC50 was 19.9 µM (active). Take `CS(=O)(=O)N(Cc1ccc(C(=O)NCCSc2ccccn2)cc1)c1ccccc1`: the IC50 with H9c2 is 17.4 µM (active). Same read-out and setting: the figure for `CCOC(=O)c1ccccc1NC(=O)c1ccc2c(=O)n3c(nc2c1)CCCCC3` is > 79 µM (inactive). For `COc1cc(CNC2CCCCC2OC)cc(OC)c1` (stereo unspecified), in assay [8], the IC50 is 152 µM (active). The same measure, in the same setting: the figure for `Oc1ccc(-c2csc(Nc3cccnc3)n2)cc1` is 18.2 µM (active). In the case of `O=C1N=C(N2CCCCC2)S/C1=C/C1=Cc2ccccc2OC1`, the EC50 in assay [4] and in assay [5] was > 300 µM (not active) in each case. On to `COc1ccc(C(=O)NNC(=O)c2ccc3ccccc3n2)cc1`, for which the IC50 with H9c2 is > 79 µM (inactive). Take `Oc1ccc(-c2c(-c3ccsc3)sc3ccccc23)cc1`: in [1], the AC50 was 3.3 µM (active). Same read-out and setting: for `O=S(=O)(/C=C/c1ccccc1)NC1CCCCCCC1` the value was 24.7 µM (active).

On to `CN(CC(=O)NCc1ccccn1)S(=O)(=O)c1ccc(Br)cc1`, for which the EC50 in [4] and in assay [5] was > 300 µM (not active) in each case. For `Oc1ccc(N2CCN(c3ccnc4cc(Cl)ccc34)CC2)cc1`, in assay [8], the IC50 is 48.3 µM (active).

`Cc1c(N=NC2=C(O)CCCC2=O)c(=O)n(-c2ccccc2)n1C`: the IC50 on Nonstructural protein 1 is 2.9 µM (active). With `COCCN1CCC(CNCc2c[nH]nc2-c2ccc(C)c(C)c2)C1` (stereo unspecified), the EC50 in assay [4] was > 300 µM (not active); in assay [5], > 300 µM (inconclusive). In the case of `CCOC(=O)c1ccccc1N1C(=O)CSC1=S`, the IC50 in assay [2] and in assay [3] was > 66 µM (inactive) throughout. Turning to `CCS(=O)(=O)c1ccc2oc(=O)c(/C=C(\O)c3ccc(Cl)cc3)nc2c1`, the IC50 in assay [8] is 99.7 µM (active). For `CCCCn1c(NC(=S)Nc2ccccc2)nc2ccccc21`, the IC50 in [2] and in assay [3] was > 66 µM (inactive) throughout.

In the case of `O=C1CSC(Nc2ccc(O)cc2)=N1`, in assay [8], the IC50 is 35.9 µM (active). Regarding `COc1cccc(CNC(=O)CSc2ccc(-c3ccccn3)nn2)c1`, on Nonstructural protein 1, the IC50 was 20.6 µM (active). As for `CC(=O)Nc1cccc(-c2cc(NC(C)=O)c3ncc(-c4cccc(C(C)=O)c4)n3c2)c1`, in the assay on H9c2, the IC50 was > 79 µM (inactive). Regarding `COc1cc(-c2cc(NC(C)=O)c3ncc(-c4cc(OC)c(OC)c(OC)c4)n3c2)cc(OC)c1OC`, the IC50 in the assay on H9c2 is > 79 µM (inactive).

Turning to `COc1ccc(CCCNC(=O)C2(C)Cc3c(-c4ccc(NC(C)=O)cc4)ccnc3O2)cc1` (stereo unspecified), in the assay with H9c2, the IC50 is > 79 µM (inactive). Turning to `COc1cc(/C=C/C(=O)OC(C)C(=O)Nc2c(C)n(C)n(-c3ccccc3)c2=O)ccc1O` (stereo unspecified), the IC50 in assay [8] was 61.4 µM (active).

For `CCOC(=O)c1ccccc1OCc1cc(/C=N/NC(=O)c2cccnc2)ccc1OC`, the IC50 with H9c2 was > 79 µM (inactive). For the compound `COC(=O)c1ccc(-n2c(C)cc(/C=N/Nc3nc(C)cc(O)n3)c2C)cc1`, the EC50 in assay [4] and in [5] was > 300 µM (not active) each time. As to `O=C(NCc1ccncc1)C(=O)N/N=C/c1ccccn1`, the EC50 was 86.1 µM (active) in assay [4] and 24.2 µM (active) in assay [5]. As to `O=[N+]([O-])c1ccc(N/N=C2\CC3CC=CC23)c([N+](=O)[O-])c1` (stereo unspecified), the IC50 on Nonstructural protein 1 is 35.3 µM (active). Turning to `CCOc1cc(/C=N/NC(=O)C(C)Sc2ccccn2)ccc1O` (stereo unspecified), the IC50 in [8] was 39.8 µM (active).
